The results in this text go back to publication PMC7611821 (ACS synthetic biology, 2020).

The target in this experiment is Ec-F1F0 (E. coli ATP synthase) (Escherichia coli, UniProt P0ABB0+P0ABB4). The experiment is described as follows: NADH-driven ATP synthesis in proteoliposomes, luciferase luminescence. In kind it is biochemical. The conditions noted are these: turnover only; 50 μM ADP, 20 mM Tris-PO4 pH 7.4, 5 mM MgCl2, 200 μM NADH, 20 °C.
Sequence of Ec-F1F0 (E. coli ATP synthase) (P0ABB0 whole entry, looked up): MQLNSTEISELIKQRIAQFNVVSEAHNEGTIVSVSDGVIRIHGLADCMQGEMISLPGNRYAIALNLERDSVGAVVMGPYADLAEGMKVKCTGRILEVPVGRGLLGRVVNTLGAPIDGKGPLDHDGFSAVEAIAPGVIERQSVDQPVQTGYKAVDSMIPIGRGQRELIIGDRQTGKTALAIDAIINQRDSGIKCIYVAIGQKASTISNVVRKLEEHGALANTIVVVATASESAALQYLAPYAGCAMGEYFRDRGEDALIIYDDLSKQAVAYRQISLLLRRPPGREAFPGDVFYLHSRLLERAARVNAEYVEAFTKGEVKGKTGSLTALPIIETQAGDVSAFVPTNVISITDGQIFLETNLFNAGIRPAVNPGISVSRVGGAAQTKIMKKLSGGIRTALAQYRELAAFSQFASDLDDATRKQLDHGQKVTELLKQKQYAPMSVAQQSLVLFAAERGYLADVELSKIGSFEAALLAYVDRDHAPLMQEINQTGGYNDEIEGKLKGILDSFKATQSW
Sequence of Ec-F1F0 (E. coli ATP synthase) (P0ABB4 whole entry, looked up): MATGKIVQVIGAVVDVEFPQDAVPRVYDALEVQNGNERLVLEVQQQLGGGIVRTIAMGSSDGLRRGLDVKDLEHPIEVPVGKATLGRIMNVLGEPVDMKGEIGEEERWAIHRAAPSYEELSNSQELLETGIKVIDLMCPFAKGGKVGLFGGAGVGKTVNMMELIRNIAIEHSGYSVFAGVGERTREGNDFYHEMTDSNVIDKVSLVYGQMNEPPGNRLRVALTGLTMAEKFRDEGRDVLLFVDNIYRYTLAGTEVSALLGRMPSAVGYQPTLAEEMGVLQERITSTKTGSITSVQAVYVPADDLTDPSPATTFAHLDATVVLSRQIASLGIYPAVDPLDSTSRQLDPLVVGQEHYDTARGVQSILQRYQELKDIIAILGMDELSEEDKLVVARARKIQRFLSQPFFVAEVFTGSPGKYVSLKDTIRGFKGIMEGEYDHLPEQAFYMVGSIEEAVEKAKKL

On to `Nc1ncnc2c1ncn2[C@@H]1O[C@H](COP(=O)(O)OP(=O)(O)O)[C@@H](O)[C@H]1O` [ADP], for which the “NADH-driven ATP synthesis in proteoliposomes, luciferase luminescence” value is on record as “the Δp is used by Ec-F1F0 to generate ATP”.
